One assay has as its system IL-8 secretion. In words: Inhibitory activity on Bradykinin B1 agonist-induced secretion of IL-8 in human IMR-90 cells. The assay is classed as cell-based. As to conditions: 30 min compound, stimulated with 0.1 μM Lys-[Des-Arg9]Bradykinin and 0.1 μM Sar-[D-Phe8]-des-Arg9-Bradykinin for 5 hours. The text has this:
(§1) Inhibitory activity on Bradykinin B1 agonist-induced secretion of IL-6 and IL-8 in human IMR-90 cells
(§2) The effect of the compound examples on secretion of the cytokine IL-6 and IL-8 has been investigated in the human foetal lung fibroblast IMR-90 cell line. Here the induction of the cytokine secretion was induced by the Bradykinin B1 agonists Lys-[Des-Arg9]Bradykinin (CAS 71800-36-7, Tocris Bioscience) and Sar-[D-Phe8]-des-Arg9-Bradykinin (CAS 126959-88-4, Tocris Bioscience) leading to the activation of the Bradykinin B1-driven signalling pathway. This effect is indicative for a strong anti-inflammatory mode of action in kinin driven inflammation.
(§3) IMR-90 cells were cultured in Eagle's Minimum Essential Medium (EMEM) containing 2 mM L-glutamine, 1 g/L glucose, 1.5 g/L NaHCO3, 1 mM sodium pyruvate and non-essential amino acids (ATCC, 30-2003™) supplemented with 10% FBS (Biochrom, S0615) and 50 U/mL Penicillin, 50 μg/mL Streptomycin (PAA, P11-010). The assay was performed in EMEM and a cell density of […] IMR-90 cells/96-well. The compound examples have been serial diluted in 100% DMSO and evaluated at 8 different concentrations within the range of 3 nM and 10 μM and a final DMSO concentration of 0.4%. The IMR-90 cells have been incubated with the respective concentration of the compound for 30 min. The enhanced secretion of IL-6 and IL-8 was induced by the stimulation of these cells with 0.1 μM Lys-[Des-Arg9]Bradykinin (Tocris, catalogue no. 3225) and 0.1 μM Sar-[D-Phe8]-des-Arg9-Bradykinin (Tocris, catalogue no. 3230) for 5 hours at 37° C. and 5% C02. Further, cells have been treated with Lys-[Des-Arg9]Bradykinin and Sar-[D-Phe8]-des-Arg9-Bradykinin as neutral control and with 0.1% DMSO as inhibitor control. The amount of IL-6 and IL-8 in the supernatant was determined using the Human Prolnflammatory Panel II (4-Plex) (MSD, K15025B) according to manufacturer's instruction. Briefly, supernatants were added onto assay plates and incubated at room temperature for 1-2 h with vigorous shaking at 600 rpm. Detection antibodies were then added onto the supernatants and incubated at room temperature for an additional 1-2 h with vigorous shaking at 600 rpm. Plates were washed three times with phosphate-buffered saline (PBS; 137 mM NaCl, 2.7 mM KCl, 6.5 mM Na2HPO4, 1.7 mM KH2P04) containing 0.05% Tween-20 (Bio-Rad, 161-0781) and electrochemiluminescence detected using the MSD Sector Imager 6000 plate reader. The cell viability was measured using the CellTiter-Glo Luminescent Assay (Promega, G7571) following the manufacturers protocol. Briefly, the CellTiter-Glo Reagent was diluted with PBS (1:1) and added directly to cells. After incubation and shaking for 10 minutes luminescent signal was measured which is proportional to the amount of ATP present.
(§4) The effect of the compound on the amount of secreted cytokine has been calculated as 100/(measured cytokine concentration of neutral control-measured cytokine concentration of inhibitor control)*(measured cytokine concentration of compound dose-measured cytokine concentration of inhibitor control). IC50 values are determined using 4-parameter-fit.
(§5) The compound examples were tested in triplicates per plate and the inhibitory activity was determined as the relation between neutral and inhibitor control in percent. IC50 values were calculated using the 4-parameter logistic model.

A further assay has as its system IL-6 secretion. Description: Inhibitory activity on Bradykinin B1 agonist-induced secretion of IL-6 in human IMR-90 cells. As to conditions: 30 min compound, stimulated with 0.1 μM Lys-[Des-Arg9]Bradykinin and 0.1 μM Sar-[D-Phe8]-des-Arg9-Bradykinin for 5 hours. It is filed as cell-based.
From the text: as §1, §2, §3, §4, §5

The subject of assay [1] is IL-1B and des-Arg9-bradykinin (DABK) induced paw oedema. Description: Rat paw oedema in vivo model. As to conditions: p.o., p < 0.05 versus vehicle (6.45 ± 1.14). The protocol:
Rat Paw Oedema In Vivo Model
Male Sprague Dawley rats, approximately 250 g body weight, were used. The compound examples were administered orally in the vehicle as described in “Rat CFA in vivo model”, supra. Rats were treated orally (p.o.) with a solution of 5 mL/kg bodyweight of the vehicle only or 5 mL/kg bodyweight of a solution containing the vehicle plus the compound in a dose as indicated in Table 4. Rats received an intraplantar injection of IL-1B (5 μg in 20 μL) and des-Arg9-bradykinin (DABK; 10 μg in 20 μL) at 20 and 40 minutes after compound treatment, respectively. Paw oedema was measured by water displacement using a plethysmometer (Ugo Basile, Gemonio, Italy). Paw oedema measurement was performed before compound administration (baseline) and subsequently at 20, 40 and 60 minutes after DABK injection. Paw oedema was calculated by subtracting the baseline value to post-DABK treatment values for each individual and at each time point. Data were analysed by calculating the area under the paw oedema time curve for each individual (0-60 minutes post-DABK). The effect of the compound example, relative to that of the vehicle, was analysed by performing a one-way ANOVA followed by a Dunnett's post-hoc test. […] The mean and standard deviation were calculated for each treatment group for graphical representations.

In general, IC50 refers to the concentration that gives 50% inhibition. A high value points to a need for much substance. Turning to `COc1ccc(-c2ccc(NC(=O)C3(c4cccc(Cl)c4)CC3)cc2-c2nnn[nH]2)cc1OC` [Example 1, 1-(3-Chlorophenyl)-N-[3′,4′-dimethoxy-2-(1H-tetrazol-5-yl)biphenyl-4-yl]cyclopropanecarboxamide], the figures for the IC50 in the assay with IL-8 secretion and in the assay on IL-6 secretion were 60 nM and 225 nM, respectively.

As for `CCOc1ccc(-c2ccc(NC(=O)C3(c4cccc(Cl)c4)CC3)cc2-c2nnn[nH]2)cn1` [Example 253, 1-(3-Chlorophenyl)-N-[4-(6-ethoxypyridin-3-yl)-3-(1H-tetrazol-5-yl)phenyl]cyclopropanecarboxamide], the “AUC of Paw Oedema (AUC 0-1 hour post DABK)” value in assay [1] (10 mg/kg) is reported as 3.24 ± 2.73 (*); in assay [1] (30 mg/kg), 3.67 ± 2.35 (*). In addition, the IC50 is 75 nM in the assay on IL-8 secretion and 57 nM with IL-6 secretion.

For the origin of these results see patent US20210317092A1 (BAYER PHARMA AKTIENGESELLSCHAFT, priority 2016, published 2021).
